The record followed here is publication PMC11565396 (Journal of Lipid Research, 2024).

Usually pKd stands for −log10 of the Kd, conventionally taken in molar units.

pKd: −log10 of the molar value. Where two headings read alike, the source gives them in different places.

The test deals with EBOV VP40 (6xHis-VP40) (Ebola virus - Mayinga, Zaire, 1976, UniProt Q05128). Put plainly: biochemical. It counts as binding.
EBOV VP40 (6xHis-VP40), sequence (Q05128 whole entry, looked up): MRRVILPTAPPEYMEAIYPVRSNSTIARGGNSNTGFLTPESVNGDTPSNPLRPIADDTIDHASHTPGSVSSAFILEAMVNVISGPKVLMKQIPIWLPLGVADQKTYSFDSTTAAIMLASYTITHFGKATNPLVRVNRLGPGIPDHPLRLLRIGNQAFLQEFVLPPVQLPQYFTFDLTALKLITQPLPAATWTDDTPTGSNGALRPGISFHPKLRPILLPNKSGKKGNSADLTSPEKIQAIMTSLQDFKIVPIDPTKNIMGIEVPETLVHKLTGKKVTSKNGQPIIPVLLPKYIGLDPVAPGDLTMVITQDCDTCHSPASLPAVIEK

Turning to `CCCCCCCC/C=C\CCCCCCCC(=O)OC[C@H](COP(=O)(O)OC[C@H](N)C(=O)O)OC(=O)CCCCCCC/C=C\CCCCCCCC` [DOPS], the pKd (read-out: Kd (apparent)) was 6.51.

On to `CCCCCCCCCCCCCCCC(=O)OCC(COP(=O)(O)OC[C@H](N)C(=O)O)OC(=O)CCCCCCCCCCCCCCC` (stereo partly drawn) [DPPS], for which, under “read-out: Kd (apparent)”, the pKd was 8.00. As to `CCCCCCCC/C=C\CCCCCCCC(=O)O[C@H](COC(=O)CCCCCCCCCCCCCCC)COP(=O)(O)OC[C@H](N)C(=O)O` [POPS], the pKd was 6.73.
